Data from paper PMC8958501, “Hypothesis-Driven, Structure-Based Design in Photopharmacology: The Case of eDHFR Inhibitors” (Journal of Medicinal Chemistry, 2022).
Read-outs that look alike come from different tables or passages of the source.

Assays:
eDHFR = biological target: T1, eDHFR (Escherichia coli, UniProt P0ABQ4); experiment: biochemical; conditions: for light-induced change in eDHFR inhibition (dark IC50 vs irradiated IC50): irradiation with λ1 = 365 nm;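 for all read-outs here: purified E. coli DHFR colorimetric assay, enzyme with NADPH 3 min then inhibitor (10^-12 to 10^-5 M) 7 min, rate ΔAbs/s relative to DMSO control (1% v/v), triplicates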
T1 construct: made in house; host or cells: E. cloni EXPRESS BL21 (DE3) cells (Lucigen), pT7-SC1 plasmid
T1 sequence (P0ABQ4 whole entry): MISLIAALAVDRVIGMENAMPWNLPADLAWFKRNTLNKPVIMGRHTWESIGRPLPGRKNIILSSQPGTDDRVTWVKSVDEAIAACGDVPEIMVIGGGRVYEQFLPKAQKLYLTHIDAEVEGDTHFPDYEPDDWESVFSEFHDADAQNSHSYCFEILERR
Experimental: A 10 mM stock solution of the inhibitor in DMSO was divided into two parts. One half was thermally adapted with a heat gun for 1 min to obtain only the trans isomer.
The compounds were tested as eDHFR inhibitors via a colorimetric assay (Sigma-Aldrich, Catalog No. CS0340). Instead of the human DHFR protein provided in the kit, the in-house purified eDHFR was used. In a 3 mL cuvette, eDHFR (∼20 ng) was incubated with NADPH (60 μM, final) for 3 min, followed by an incubation with the inhibitor (from 10^–5 to 10^–12 M, final) for an additional 7 min. […] The concentration of DMSO in the final volume was 1% v/v for all enzymatic reactions. The measurements were performed in triplicates. For the control enzymatic reactions, eDHFR was incubated with NADPH and DMSO (1% v/v, final). […] The related control enzymatic reaction was also performed under continuous irradiation with λ1 = 390 nm light. Linear regression was performed in Microsoft Excel to calculate ΔAbs/s. % eDHFR activity was calculated as the ratio between ΔAbs/s for the sample and ΔAbs/s for the control reaction. GraphPadPrism 5.0 (GraphPad Software, Inc., version 5.00) was used for the determination of the IC50 of each inhibitor. Nonlinear regression was used for data fitting.

E. coli CS1562 = experiment: Antibacterial activity assay (MIC, bacterial growth curves); type: cell-based, Escherichia coli; conditions: for MIC: Escherichia coli; for light-induced difference in antibacterial activity (dark MIC vs irradiated MIC): irradiation with λ1 = 365 nm; for light-induced difference in antibacterial activity (dark MIC vs irradiated MIC) / MIC / bacterial growth inhibition, same in both forms: E. coli CS1562; for MIC / bacterial growth inhibition, same in both forms: both before and after irradiation with λ1 = 365 nm
Experimental: A culture of E. coli CS1562 was grown overnight in LB medium (10 g/L tryptone, 5 g/L yeast extract, 5 g/L NaCl) containing tetracycline (10 μg/mL) at 37 °C. The OD600 was measured, and the culture was diluted to 0.002 OD600 in LB medium. Series dilutions of the compounds were prepared in DMSO and diluted 25 times in sterile LB medium in a black sterile Eppendorf tube. […] Subsequently, the dark samples were added to the 96-well plate (100 μL, triplicates). Lastly, the LB medium containing E. coli CS1562 at 0.002 OD was added to every well (100 μL). The cells were grown overnight at 37 °C in a plate reader (Synergy H1, Biotek), and the OD600 was measured every 10 min with a 10 s shaking step before each measurement. The OD600 curves were background-corrected by subtracting the value at t = 0. […] Detailed data are reported in the SI.

[1] = Thermal cis-to-trans isomerization (thermal half-life of the metastable cis isomer); type: physicochemical; conditions: thermal cis-to-trans isomerization, DMSO, 25 °C, 20 µM
Experimental: UV–vis absorption spectra were recorded on an Agilent 8453 UV–vis Spectrophotometer. Photochemical isomerization (photoswitching) was achieved by irradiation from the side in a fluorescence quartz cuvette (width = 1.0 cm) using a custom-built (Prizmatix/Mountain Photonics) multiwavelength fiber coupled LED system (FC6-LED-WL) including the following LEDs: 365A, 390B, 420Z, 445B, 535R, 630CA. A detailed description of the setup was published by us recently.[84] Alternatively, the samples were irradiated at 340 nm using the LOT Quantum design setup with 300 W Xe-Arc lamp, using the Thorlabs FB340-10 Bandpass filter. A Quantum Northwest TC1 temperature controller was used to maintain the temperature at 25 °C during photochemical studies. To analyze the fatigue resistance of the compounds, repeated irradiation cycles were performed using alternating wavelengths. The decrease and increase of the π–π* transition band was followed by UV–vis spectroscopy (Agilent 8453) at 25 °C while stirring. To determine the thermal lifetime for the metastable cis isomer, samples were irradiated with the custom-built setup until photostationary state (PSS) was reached. Then, the cuvettes were placed in a JASCO V750 spectrophotometer with a PTC 424S/15 temperature controller, and the recovery of the π–π* transition was followed while stirring at 25 °C (for solutions in DMSO and eDHFR assay buffer) or 37 °C (for solutions in 10 mM Tris-HCl buffer pH 7.0). The data were fitted using a first-order exponential function in OriginPro 2018. For the PSD determination by ^1H NMR spectroscopy, 0.5 mL of a 2 mM solution of the respective compound in DMSO-d6 was thermally equilibrated by briefly (∼10 s) heating the sample with a heat gun. Subsequently, the sample was irradiated in a glass NMR tube with a 365 nm hand-held lamp (Spectroline ENB-280C) or the LEDs of the custom-built setup. Detailed data are reported in the SI.

[2] = after irradiation, read-out: DHFR inhibition IC50 (nM) after irradiation
[3] = before irradiation, read-out: DHFR inhibition IC50 (nM) before irradiation
[4] = light or radiation study, after irradiation with λ1 = 365 nm, E. coli CS1562, 24 h, read-out: MIC Light
[5] = light or radiation study, after irradiation, E. coli CS1562, 24 h, read-out: MIC (µM) after irradiation
[6] = light or radiation study, before irradiation, E. coli CS1562, 24 h, read-out: MIC (µM) before irradiation
[7] = dark, E. coli CS1562, 24 h, read-out: MIC Dark
[8] = IC50 Dark, dark-adapted (thermally adapted, trans isomer)
[9] = irradiated to PSS with λ1 (340 nm for 3, 365 nm for 6-15), read-out: IC50 Light
[10] = irradiated with λ1 (1: continuous irradiation at 390 nm), read-out: IC50 Light
[11] = no considerable activity up to, dark-adapted and irradiated states
[12] = DHFR inhibition IC50 (nM) before irradiation, before irradiation

SMILES | IC50 (eDHFR; [2]) [nM] | IC50 (eDHFR; [3]) [nM] | MIC (E. coli CS1562; [4]) [µM] | MIC (E. coli CS1562; [5]) [µM] | MIC (E. coli CS1562; [6]) [µM] | MIC (E. coli CS1562; [7]) [µM] | t1/2 DMSO (25 °C) [1] [h] | melting point | IC50 (eDHFR; [8]) [nM] | IC50 (eDHFR; [9]) [nM] | IC50 (eDHFR; [10]) [nM] | also measured
COC(C)(C#Cc1cnc(N)nc1N)c1ccc(/N=N/c2c(C)nn(C)c2C)cc1 (stereo not drawn) [Compound 9, (E)-5-(3-Methoxy-3-(4-((1,3,5-trimethyl-1H-pyrazol-4-yl)diazenyl)phenyl)but-1-yn-1-yl)pyrimidine-2,4-diamine] | 640 ± 510 | 220 ± 60 | 80 | 80 | 80 | 80 | > 24 | 162 to 164 °C |  |  |  | light-induced difference in antibacterial activity (dark MIC vs irradiated MIC) (E. coli CS1562): did not display any light-dependent potency difference
COc1ccc(/N=N/c2ccc(COc3c(OC)cc(Cc4cnc(N)nc4N)cc3OC)cc2)cc1 [PMAT, para-methoxyazobenzene trimethoprim, reference compound] |  |  |  |  |  |  |  |  | 2 ± 0.61 | 2.5 ± 0.61 |  | 
Nc1ncc(/N=N/c2ccccc2)c(N)n1 [Compound 1, (E)-5-(Phenyldiazenyl)pyrimidine-2,4-diamine] | > 10000 | > 10000 |  |  |  |  | 1.3 | > 250 °C | > 10000 |  | > 10000 | IC50 (eDHFR; [11]): > 10000 nM
COC(C)(C#Cc1cnc(N)nc1N)c1ccc(/N=N/c2ccc(Cl)c(C(=O)O)c2)cc1 (stereo not drawn) [Compound 13, (E)-2-Chloro-5-{[4-(4-(2,4-diaminopyrimidin-5-yl)-2-methoxybut-3-yn-2-yl)phenyl]diazenyl}benzoic acid] | 29 ± 8.6 | 28 ± 4.8 | 80 | 80 | 40 | 40 | > 24 | 212 °C (dec.) |  |  |  | light-induced change in eDHFR inhibition (dark IC50 vs irradiated IC50) (eDHFR): no difference in activity
Nc1ncc(C#Cc2cccc(/N=N/c3ccccc3)c2)c(N)n1 [Compound 5, (E)-5-{[3-(Phenyldiazenyl)phenyl]ethynyl}pyrimidine-2,4-diamine] |  |  |  |  |  |  | > 24 | 207 to 209 °C | 5300 |  | 2600 | 
Nc1ncc(-c2ccc(/N=N/c3ccccc3)cc2)c(N)n1 [Compound 2, (E)-5-[4-(Phenyldiazenyl)phenyl]pyrimidine-2,4-diamine] | > 10000 | > 10000 |  |  |  |  | 27 | 199 to 201 °C | > 10000 |  | > 10000 | IC50 (eDHFR; [11]): > 10000 nM
COc1cc(Cc2cnc(N)nc2N)cc(OC)c1OC [TMP, trimethoprim, reference compound] |  |  |  |  |  |  |  |  |  |  |  | MIC (E. coli CS1562; CS1562, light or radiation study, 24 h): 1.3 µM; MIC (E. coli CS1562; CS1562, light or radiation study, 24 h, read-out: MIC (µM) before irradiation): 1.3 µM
COC(C)(C#Cc1cnc(N)nc1N)c1ccc(/N=N/c2ccc(C(=O)O)cc2)cc1 (stereo not drawn) [Compound 11, (E)-4-{[4-(4-(2,4-Diaminopyrimidin-5-yl)-2-methoxybut-3-yn-2-yl)phenyl]diazenyl}benzoic acid] | 70 ± 39 |  | 40 | 40 | 40 | 40 | > 24 | 248 °C (dec.) | 58 ± 13 | 70 ± 39 |  | IC50 (eDHFR; [12]): 58 ± 13 nM; light-induced change in eDHFR inhibition (dark IC50 vs irradiated IC50) (eDHFR): not significant; MIC / bacterial growth inhibition, same in both forms (E. coli CS1562): 40 µM
COC(C)(C#Cc1cnc(N)nc1N)c1ccc(/N=N/c2ccc(C(=O)O)c(Cl)c2)cc1 (stereo not drawn) [Compound 15, (E)-2-Chloro-4-{[4-(4-(2,4-diaminopyrimidin-5-yl)-2-methoxybut-3-yn-2-yl)phenyl]diazenyl}benzoic acid] | 27 ± 3.7 |  | 20 | 20 | 40 | 40 | > 24 | 245 °C (dec.) | 52 ± 11 | 27 ± 3.7 |  | IC50 (eDHFR; [12]): 52 ± 11 nM; light-induced change in eDHFR inhibition (dark IC50 vs irradiated IC50) (eDHFR): 2 fold; light-induced difference in antibacterial activity (dark MIC vs irradiated MIC) (E. coli CS1562): 2 fold
COc1cc(Cc2cnc(N)nc2N)cc(OC)c1OCc1cc(F)c(/N=N/c2c(F)cccc2F)c(F)c1 [TFAT, tetra-ortho-fluoroazobenzene trimethoprim, reference compound] | 1.7 ± 0.32 | 1.9 ± 0.61 |  |  |  |  |  |  |  |  |  | 
COC(C)(C#Cc1cnc(N)nc1N)c1ccc(/N=N/c2cccc(C(=O)O)c2)cc1 (stereo not drawn) [Compound 10, (E)-3-{[4-(4-(2,4-Diaminopyrimidin-5-yl)-2-methoxybut-3-yn-2-yl)phenyl]diazenyl}benzoic acid] |  |  | 20 | 20 | 20 | 20 | > 24 | 190 °C (dec.) | 24 | 57 |  | MIC / bacterial growth inhibition, same in both forms (E. coli CS1562): 20 µM
COc1ccc(/N=N/c2ccc(C(C)(C#Cc3cnc(N)nc3N)OC)cc2)cc1 (stereo not drawn) [Compound 8, (E)-5-{3-Methoxy-3-[4-((4-methoxyphenyl)diazenyl]phenyl}but-1-yn-1-yl)pyrimidine-2,4-diamine] | 200 ± 77 |  | > 80 | > 80 | > 80 | > 80 | > 24 | 186 to 189 °C | 330 ± 190 | 200 ± 77 | 200 | IC50 (eDHFR; [12]): 330 ± 190 nM; MIC / bacterial growth inhibition, same in both forms (E. coli CS1562): > 80 µM
Nc1ncc(C#Cc2ccc(/N=N/c3ccccc3)cc2)c(N)n1 [Compound 4, (E)-5-{[4-(Phenyldiazenyl)phenyl]ethynyl}pyrimidine-2,4-diamine] | > 10000 | > 10000 |  |  |  |  | 8.6 |  | > 10000 |  | > 10000 | IC50 (eDHFR; [11]): > 10000 nM
Nc1ccnc(N)n1 [2,4-diaminopyrimidine, reference compound] |  |  |  |  |  |  |  |  |  |  |  | IC50 (eDHFR; fragment, no irradiation, read-out: IC50): 390000 ± 150000 nM
COc1cc(Cc2cnc(N)nc2N)cc(OC)c1OCc1cc(Cl)c(/N=N/c2c(Cl)cccc2Cl)c(Cl)c1 [TCAT, tetra-ortho-chloroazobenzene trimethoprim, reference compound] | 3.3 ± 2.1 | 3.8 ± 1.4 |  |  |  |  |  |  |  |  |  | 
